PMC4970648, “Studies on 16α-Hydroxylation of Steroid Molecules and Regioselective Binding Mode in Homology-Modeled Cytochrome P450-2C11” (International Journal of Medicinal Chemistry, 2010)

Biological target: [3H]PROG 16α-hydroxylating activity by male rat liver microsomes (CYP2C11) (Rattus norvegicus, UniProt P08683)
Assay: Inhibition of [3H]progesterone 16α-hydroxylation by adult male rat liver microsomes
Details: male rat liver microsomes; for [3H]PROG16α-hydroxylation (IC40), given as bound in μM: 40% inhibition not reached at 10 μM of unlabeled steroid; for [3H]PROG16α-hydroxylation (IC40): molar concentration of unlabeled steroid causing 40% inhibition, [3H]PROG 20 nM, unlabeled steroid 0.01–10 μM
Experimental: Approximately 95-day-old male Wistar rats, castrated on the 70th day after birth, were used. The liver microsomes were prepared as previously described. The experiments were performed according to instrumental guidelines for the care and use of laboratory animals.
The metabolism by rat liver microsomes were examined, according to our previously described procedure. Briefly, the microsomal suspension (400–600 μg of protein/2.2 mL, total volume of the reaction mixture) was preincubated with [3H]PROG (20 nM) under the absence or presence of an unlabeled steroid (0.01–10 μM) at 36°C for 30 min. […] After the incubation, two identical samples were mixed and extracted with toluene. The toluene-extractable [3H]PROG metabolites (more than 90%) were isolated by various paper chromatographic systems and then identified by recrysallization method. Other miscellaneous procedures are described in our previous papers.

[3H]PROG 16α-hydroxylating activity by male rat liver microsomes (CYP2C11), sequence (P08683 whole entry): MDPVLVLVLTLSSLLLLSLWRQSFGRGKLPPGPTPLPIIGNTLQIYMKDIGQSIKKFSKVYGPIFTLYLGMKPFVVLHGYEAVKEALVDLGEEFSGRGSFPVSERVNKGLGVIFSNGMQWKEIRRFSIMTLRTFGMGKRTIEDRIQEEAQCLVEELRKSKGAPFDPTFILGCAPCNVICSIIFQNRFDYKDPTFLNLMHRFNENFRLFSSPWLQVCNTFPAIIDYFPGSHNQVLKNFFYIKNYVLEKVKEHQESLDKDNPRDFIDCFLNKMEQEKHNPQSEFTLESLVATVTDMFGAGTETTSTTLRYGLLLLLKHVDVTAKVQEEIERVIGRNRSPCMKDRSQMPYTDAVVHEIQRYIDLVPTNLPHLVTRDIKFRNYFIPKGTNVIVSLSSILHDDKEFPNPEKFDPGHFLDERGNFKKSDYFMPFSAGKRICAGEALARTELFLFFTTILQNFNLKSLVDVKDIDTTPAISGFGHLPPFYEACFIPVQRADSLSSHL

SMILES | [3H]PROG16α-hydroxylation (IC40), given as bound in μM [µM] | [3H]PROG16α-hydroxylation (IC40) [µM]
C[C@@]12CCC[C@H]1[C@@H]1CC[C@@H]3CCCC[C@]3(C)[C@H]1CC2 [compound 47, 5β-Androstane] | >10 | –
C[C@@]12CCC[C@H]1[C@@H]1CC[C@H]3C[C@H](O)CC[C@]3(C)[C@H]1CC2 [compound 48, 5α-Androstan-3α-ol] | – | 1.03
C[C@@]12CCC[C@H]1[C@@H]1CC[C@H]3C[C@@H](O)CC[C@]3(C)[C@H]1CC2 [compound 49, 5α-Androstan-3β-ol] | – | 0.65
C[C@@]12CCC[C@H]1[C@@H]1CC[C@@H]3C[C@H](O)CC[C@]3(C)[C@H]1CC2 [compound 50, 5β-Androstan-3α-ol] | – | 0.51
C[C@@]12CCC[C@H]1[C@@H]1CC[C@@H]3C[C@@H](O)CC[C@]3(C)[C@H]1CC2 [compound 51, 5β-Androstan-3β-ol] | – | 0.16
C[C@]12CCCC[C@@H]1CC[C@@H]1[C@@H]2CC[C@]2(C)[C@@H](O)CC[C@@H]12 [compound 52, 5α-Androstan-17β-ol] | >10 | –
C[C@]12CCCC[C@H]1CC[C@@H]1[C@@H]2CC[C@]2(C)[C@@H](O)CC[C@@H]12 [compound 53, 5β-Androstan-17β-ol] | – | 0.365
C[C@]12CCC(=O)C[C@@H]1CC[C@@H]1[C@@H]2CC[C@]2(C)C(=O)CC[C@@H]12 [compound 54, 5α-Androstan-3,17-dione] | – | 0.65
C[C@]12CCC(=O)C[C@H]1CC[C@@H]1[C@@H]2CC[C@]2(C)C(=O)CC[C@@H]12 [compound 55, 5β-Androstan-3,17-dione] | – | 0.48
C[C@]12CC[C@@H](O)C[C@@H]1CC[C@@H]1[C@@H]2CC[C@]2(C)[C@@H](O)CC[C@@H]12 [compound 62, 5α-Androstan-3α,17β-diol] | – | 0.125
CC(=O)O[C@H]1CC[C@H]2[C@@H]3CC[C@H]4C[C@H](O)CC[C@]4(C)[C@H]3CC[C@]12C [compound 63, 5α-Androstan-3α,17β-diol-17-acetate] | – | 0.3
C[C@]12CC[C@@H](O)C[C@@H]1CC[C@@H]1[C@@H]2CC[C@]2(C)[C@@H](OS(=O)(=O)O)CC[C@@H]12 [compound 64, 5α-Androstan-3α,17β-diol-17-sulfate] | >10 | –
C[C@]12CC[C@H](O)C[C@@H]1CC[C@@H]1[C@@H]2CC[C@]2(C)[C@@H](O)CC[C@@H]12 [compound 65, 5α-Androstan-3β,17β-diol] | – | 1.11
C[C@]12CC[C@@H](O)C[C@H]1CC[C@@H]1[C@@H]2CC[C@]2(C)[C@@H](O)CC[C@@H]12 [compound 66, 5β-Androstan-3 α,17 β -diol] | – | 0.069
C[C@]12CC[C@@H](O)C[C@H]1CC[C@@H]1[C@@H]2CC[C@]2(C)[C@@H](C(=O)O)CC[C@@H]12 [compound 67, 5β-Androstan-3α-ol-17β-carboxylic acid] | – | 0.36
COC(=O)[C@@H]1C[C@@H](O)C[C@H]2CC[C@H]3[C@@H]4CCC[C@@]4(C)CC[C@@H]3[C@]21C [compound 68, 5β-Androstan-3α-ol-1β-carboxylic acid methyl ester] | – | 0.043
C[C@]12CC[C@H](O)C[C@H]1CC[C@@H]1[C@@H]2CC[C@]2(C)[C@@H](O)CC[C@@H]12 [compound 69, 5β-Androstan-3β,17β-diol] | – | 0.32
